Reference: patent US6958351B2, “NMDA NR2B antagonists for treatment” (Pfizer Inc, priority 2000, dated 2005)

- melting point: 159 to 160 °C
SMILES: Oc1ccc2c(c1)OCC(N1CCC(O)(c3ccc(F)cc3)CC1)[C@H]2O (stereo in doubt)
